Test results published in patent publication US20170105981A1, “METHODS FOR STABILIZING HYPOXIA INDUCIBLE FACTOR-2 ALPHA AS A METHOD FOR TREATING CANCER” (The Ohio State Innovation Foundation, priority 2011, published 2017).

Tests used:
[1] = test system: A375 human melanoma cells; experiment: A375 human melanoma tumors in SCID mice; assay type: in vivo; conditions: at the time of sacrifice; stabilizer 17 mg/kg, docetaxel 1 mg/kg, IP 3 times per week
Description: 6-8-week-old C57BL/6 mice or SCID mice were injected with 1×10^5 B16F10 murine melanoma cells or 1×10^6 A375 human melanoma cells, respectively, subcutaneously on the left flank. […] Tumor diameters were measured 3 times per week with calipers, and tumor volumes will be calculated as follows: Tumor volume=0.5×[(large diameter)×(small diameter)^2].
In the study, immunocompromised SCID mice were inoculated with A375 human melanoma tumors subcutaneously. Starting when the tumors became palpable (7 days after injection), mice were treated with either the cytotoxic chemotherapy docetaxel or with the disclosed HIF-2α stabilizer. The disclosed HIF-2α stabilizer was given at a dose of 17 mg/kg, and the docetaxel was given at 1 mg/kg. Both drugs were given IP 3 times per week. […] At the time of sacrifice, the tumors in the mice that received only the disclosed HIF-2α stabilizer were approximately 78% of the size of the control tumors, the tumors of the mice that received only chemotherapy were approximately 50% of the size of the control tumors, and the tumors of the mice that received both drugs were approximately 16% of the size of the control tumors.

VEGF = VEGF production by human peripheral blood monocytes (ELISA, real-time PCR); assay type: cell-based; conditions: FIG. 11C
Description: (§1) Human peripheral blood mononuclear cells (PBMCs) were isolated from fresh peripheral blood leukocyte source packs (American Red Cross, Columbus Ohio) by density gradient centrifugation over Lymphocyte Separation Medium (Cellgro). Monocytes were purified from total PBMCs by layering over FBS. Monocytes were cultured in endotoxin-free RPMI-1640 supplemented with 1% fetal bovine serum (FBS), 0.1% human serum albumin (HSA), and 10 μg/mL of the endotoxin inhibitor polymyxin B. In some experiments, freshly isolated monocytes were differentiated into macrophages by three-day culture in media containing 10% FBS, 1% PSA (penicillin G sodium, streptomycin sulfate, and amphotericin B), and 20 ng/mL M-CSF. Macrophages were serum-starved for 2 hours prior to stimulation. Monocytes or monocyte-derived macrophages were treated for 24 hours with 10 ng/mL GM-CSF, 10 μM disclosed HIF-2α stabilizer, or an equivalent volume of the vehicle controls (PBS or DMSO, respectively). Cell-free culture supematants were harvested and analyzed for VEGF or sVEGFR-1 by ELISA (R&D Systems).
Human monocytes were left untreated or were stimulated with 100 ng/mL GM-CSF at normoxia or at 0.5% O2. At various time-points, cells were harvested in Trizol reagent (Invitrogen) and RNA was extracted in chloroform and then purified using the RNeasy Minikit (Qiagen). In murine studies, organs harvested at the time of euthanasia were flash-frozen in liquid nitrogen, pulverized in liquid nitrogen, and then dissolved in Trizol. cDNA was generated from 1 μg of RNA using the Superscript First Strand Synthesis System (Invitrogen) and used for real-time PCR using previously described primers and SYBR Green PCR Master Mix (Applied Biosciences), according to the manufacturer's instructions. Data were analyzed according to the comparative threshold method and normalized against the β-actin internal control transcript. Results are semi-quantitative and represent the fold difference in transcript levels in a particular sample as compared with levels in untreated cells from the same donor. […]

sVEGFR-1 = sVEGFR-1 production by human peripheral blood monocytes (ELISA, real-time PCR); assay type: cell-based; conditions: monocytes stimulated with GM-CSF alone; FIG. 11D
Description: as §1
(§2) Human monocytes were left untreated or were stimulated with 100 ng/mL GM-CSF at normoxia or at 0.5% O2. At various time-points, cells were harvested in Trizol reagent (Invitrogen) and RNA was extracted in chloroform and then purified using the RNeasy Minikit (Qiagen). In murine studies, organs harvested at the time of euthanasia were flash-frozen in liquid nitrogen, pulverized in liquid nitrogen, and then dissolved in Trizol. cDNA was generated from 1 μg of RNA using the Superscript First Strand Synthesis System (Invitrogen) and used for real-time PCR using previously described primers and SYBR Green PCR Master Mix (Applied Biosciences), according to the manufacturer's instructions. Data were analyzed according to the comparative threshold method and normalized against the β-actin internal control transcript. Results are semi-quantitative and represent the fold difference in transcript levels in a particular sample as compared with levels in untreated cells from the same donor.

VEGF mRNA = experiment: Real-time PCR of VEGF mRNA within B16F10 tumors; assay type: in vivo, mice; conditions: p=0.490, FIG. 13B
Description: as §2
6-8-week-old C57BL/6 mice were injected with 1×10^5 B16F10 murine melanoma cells murine subcutaneously on the left flank. […] Tumor diameters were measured 3 times per week with calipers, and tumor volumes will be calculated as follows: Tumor volume=0.5×[(large diameter)×(small diameter)^2]. […]

[2] = test system: B16F10 murine melanoma cells; experiment: Murine melanoma tumor model (B16F10 in C57BL/6 mice); assay type: in vivo
Description: Mice were injected with 1×10^5 B16F10 murine melanoma cells murine subcutaneously on the left flank. Once tumors become palpable (approximately 5 days), mice were randomly allocated to receive treatment with either: 20% polyethylene glycol (PEG) in 5% […] (vehicle control for the disclosed HIF-2α stabilizer) and PBS (vehicle control for GM-CSF), 20% PEG and GM-CSF (100 ng per mouse in a 50 μL volume), the disclosed HIF-2α stabilizer (17.5 mg/kg in a 100 μL volume) and PBS, or the disclosed HIF-2α stabilizer and GM-CSF (same doses). The PBS and GM-CSF were administered intratumorally, while the 20% PEG and the disclosed HIF-2α stabilizer were administered intraperitoneally. Mice were treated 3 times per week until tumors reached a size of 20 mm in any dimension (approximately 2.5 weeks), at which point mice were euthanized, in accordance with institutional policy. Tumor diameters were measured 3 times per week with calipers, and tumor volumes were calculated as follows: Tumor volume=0.5×[(large diameter)×(small diameter)^2].
6-8-week-old C57BL/6 mice were injected with 1×10^5 B16F10 murine melanoma cells murine subcutaneously on the left flank. Once tumors become palpable (approximately 5 days), mice were randomly allocated to receive treatment with either: 20% PEG-400 in 5% sucrose (vehicle for disclosed HIF-2α stabilizer) and PBS (vehicle for GM-CSF), 20% PEG-400 and GM-CSF (100 ng per mouse in a 50 μL volume), disclosed HIF-2α stabilizer (17.5 mg/kg mouse weight in a 100 μL volume) and PBS, or the disclosed HIF-2α stabilizer and GM-CSF (same concentrations). The disclosed HIF-2α stabilizer (or the vehicle control) was administered intraperitoneally, while GM-CSF (or the vehicle control) was administered intratumorally. Mice were treated […] 3 times per week until tumors reached a size of 20 mm in any dimension (approximately 2.5 weeks), at which point mice were be euthanized, in accordance with institutional policy. Tumor diameters were measured 3 times per week with calipers, and tumor volumes will be calculated as follows: Tumor volume=0.5×[(large diameter)×(small diameter)^2]. For experiments analyzing the effect of neutralizing sVEGFR-1 in combination with disclosed HIF-2α stabilizer treatment, mice were treated intraperitoneally 3×/week with either disclosed HIF-2α stabilizer or vehicle control, and intratumorally with either 4 μg anti-VEGFR-1 neutralizing antibody (R&D Systems) or 4 μg polyclonal goat IgG isotype control (Santa Cruz Biotechnology) in a 50 μL volume. All protocols were approved by the Ohio State University Animal Care and Use Committee, and mice were treated in accordance with institutional guidelines for animal care.
The ANOVA test was used to compare independent measurements between multiple treatment groups. The data was log-transformed to normalize the variance across groups. P-values were adjusted using the Holm's procedure to conserve the type I error at 0.05 due to the multiple comparisons. For tumor growth data, changes in tumor volume over time were assessed via a longitudinal model. Tumor values were log-transformed, and estimated slopes (changes in tumor volume over time) were calculated with 95% confidence intervals. Estimated differences in tumor volume were calculated by a random-effects regression of the longitudinal data. For all analyses, p≦0.05 was considered statistically significant.
6-8-week-old C57BL/6 mice or SCID mice were injected with 1×10^5 B16F10 murine melanoma cells or 1×10^6 A375 human melanoma cells, respectively, subcutaneously on the left flank. […]

Molecule	tumor size as % of the size of the control tumors [1]	VEGF protein in supernatants (free VEGF ELISA) (VEGF; GM-CSF-stimulated monocytes, VEGF neutralized by sVEGFR-1)	VEGF transcript levels (VEGF; monocytes stimulated with GM-CSF alone)	monocyte production of sVEGFR-1 (sVEGFR-1)	levels of intratumoral VEGF vs vehicle control-treated mice (VEGF mRNA)	tumor volume reduction, GM-CSF given I.T. vs I.P. ([2]; B16F10 melanoma, stabilizer 17 mg/kg I.P. in all cases, no control group, FIG. 4)	tumor growth / tumor volume ([2]; B16F10 melanoma, stabilizer 17 mg/kg I.P., GM-CSF I.T., vs PBS control, FIG. 3)	average tumor volumes vs vehicle controls ([2]; day 16 of treatment, 3×/week, GM-CSF 100 ng/mouse intratumoral, stabilizer 17.5 mg/kg intraperitoneal, each p<0.001)
CC(=O)O[C@@]12CO[C@@H]1C[C@H](O)[C@@]1(C)C(=O)[C@H](O)C3=C(C)[C@@H](OC(=O)[C@H](O)[C@@H](NC(=O)OC(C)(C)C)c4ccccc4)C[C@@](O)([C@@H](OC(=O)c4ccccc4)[C@H]21)C3(C)C [docetaxel, reference compound]	approximately 50%	–	–	–	–	–	–	–
GM-CSF: granulocyte-macrophage colony-stimulating factor	–	undetectable	increased VEGF production	induced	failed to increase	greater reduction of tumor volume	reduction in tumor volume	significantly smaller
